Publication PMC4227698, “Poly(Ethylene Glycol) as a Scaffold for High-Affinity Open-Channel Blockers of the Mouse Nicotinic Acetylcholine Receptor” (PLoS ONE, 2014)
Where two headings read alike, the source gives them in different places.

Assays:
[1] = system: muscle-type AChR; settings: cited from earlier work; for blocking rate constant k+B / unblocking rate constant k–B: ref Table S1 refs 1-12
[2] = target: T1, adult mouse muscle AChR (α, β, δ, ε) (Mus musculus, UniProt P02716+P04756+P09690+P20782, V433A); experiment: Single-channel patch-clamp analysis of open-channel blockade of AChRs expressed in HEK-293 cells; assay type: cell-based; settings: for effect on apparent mean open time (τapp): 100 µM ACh with 5, 10 or 20 µM PEG-QA; for unblocking rate constant k–B / blocking rate constant k+B: cell-attached; for unblocking rate constant k–B: average of unblocking rates at all tested concentrations; for blocking rate constant k+B: slope of linear fit of blocking rates
T1 construct: expressed in transfected cells; host or cells: HEK-293 cells (ATCC CRL-1573), transient calcium phosphate transfection, α:β:δ:ε = 2:1:1:1
Description: The cDNA clones of adult mouse muscle AChR subunits (α, β, δ, ε) in the vector pRBG4 were generously provided by Professor Anthony Auerbach (University at Buffalo, NY). […] Human embryonic kidney cells (HEK-293 cells, ATCC CRL-1573) were transiently transfected by calcium phosphate precipitation. In brief, HEK-293 cells were maintained in Dulbecco's […] (Invitrogen) supplemented with 10% Fetal Bovine Serum (Invitrogen) at 37°C and 5% CO2. Cells were plated 24 h before transfection to reach a confluence of 40–60%. A total of 3.5 µg DNA per 35-mm culture dish (α:β:δ:ε = 2∶1∶1∶1) was used. […] The medium was changed 24 h after the addition of DNA, and patch-clamp recordings were carried out 20–36 h thereafter.
Single-channel currents from AChRs were recorded using patch-clamp techniques in the cell-attached configuration. For dose-dependence measurements, a holding potential of +70 mV was applied. Kinetic analysis of single-channel currents was carried out using the QuB suite, [12]. The currents were idealized using the segmented k-means (SKM) hidden Markov algorithm at full bandwidth (10 kHz). Kinetic modeling of the idealized intervals was performed using the maximum interval likelihood (MIL) method, [12]. Additional details of recording and data analysis are provided in File S1.
MIL analysis on 2–4 cells was performed to determine the apparent mean open time (τapp), blocking rate, and unblocking rate for each measuring condition (reported as mean ± SEM). Uncertainties in the blocking rate constant (k+B values in Figure 2F) are reported as the standard errors in the least squares fits.
To test this hypothesis, we characterized the blockade kinetics of a series of PEG-QA conjugates (PQ1–PQ5; Figure 1) using patch-clamp electrophysiology. These conjugates were prepared from a short PEG, octa (ethylene glycol), through a three-step conversion (File S1). The chosen QA groups are small relative to the backbone length, and the hydrodynamic radii of these compounds are therefore expected to be similar. The kinetics and microscopic equilibrium affinity of channel blockade were determined by analyzing the acetylcholine (ACh)-elicited currents at the single-channel level. Channel activities were measured at 100 µM ACh in the absence or presence of 5, 10, or 20 µM of PEG-QA. […] The brief gaps within the clusters represent channel closing events.
Typical open-channel blockers follow a sequential blockade mechanism: the channel opens in response to ACh binding, and the blocker reversibly binds and dissociates from the transmembrane pore before the channel closes (Figure 1 and File S1). […] A new population of non-conducting blockade events, in addition to the brief closing and the long desensitized dwells, is also observed. These blockade events manifest themselves as a new component in the closed-time histogram. The relative area of the blockade component increases with increasing blocker concentration (reflecting the concentration-dependent rate of pore blockade), while the lifetime of this component (τB) is independent of blocker concentration (reflecting the unimolecular nature of blocker dissociation). These kinetic features allow the blocking and unblocking rate constants (k+B and k–B, respectively) to be determined by fitting of the dwell times under each set of conditions (File S1). […]
were amplified (Axopatch 200B, Axon Instruments, Foster City, CA), low-pass filtered at 10 kHz, and digitized at 20 kHz (NI 6040 E Data Acquisition Board, National Instruments, Austin, TX). Data were recorded directly to a desktop PC hard drive using the QuB software (www.qub.buffalo.edu).
1.3. Analysis of single-channel data (see also: Figure S1)
Kinetic analysis of single-channel currents was carried out using the QuB suite. The currents were idealized using the segmented k-means (SKM) hidden Markov algorithm at full bandwidth (10 kHz). Kinetic modeling of the idealized intervals […]

[3] = target: T1, adult mouse muscle AChR (α, β, δ, ε); experiment: Agonist potency of PEG-QA alone, single-channel recording; assay type: cell-based; settings: 10 µM in the pipette solution without other agonists, +70 mV
Text: Various QA compounds, including the prototype PEG-QA (PQ0), have been previously reported as agonists for the muscle-type AChR [8], [19], [26]–[28]. […] The agonist potencies of PEG-QAs correlate roughly inversely with the size of their QA groups (except PQ4; Figure S4). […] The low agonist potencies of PQ3 and PQ5 may be attributable to their bulky QA groups, which may cause reduced affinities for the agonist-binding pocket and/or interfere with receptor conformational changes required for channel gating. Open-channel blockers with low agonist potencies may be favorable in some applications, since their pharmacological effects are simpler and more predictable.
Supplementary file pone.0112088.s004.tif: Figure S4 The agonist potencies of PQ1–5. (A) Representative traces of single-channel recordings in the presence of individual PEG-QA (10 µM in the pipette solution without other agonists). Pipette potential was held at +70 mV, and the currents are shown as upward deflections. (B) The effect of QA structure on the open probability of the AChR (defined as [drawing 1] , where N max is the maximal number of simultaneously open channels and Po,i is the fraction of time in which i channels open simultaneously). Data are plotted in log-scale in order to present the low NPo values of PQ3 and PQ5. (C) The effect of QA structure on the mean open time of the AChR. […]

[4] = previously reported open-channel blockers
[5] = previously reported open-channel blockers, ref Table S1 refs 1-14, read-out: Kd (= k–B/k+B)
[6] = 100 µM ACh, +70 mV, predominant blockade mode
[7] = predominant blockade mode, 100 µM ACh, +70 mV, read-out: Kd (= k–B/k+B) for the open AChR pore
[8] = 20 µM blocker, held at +50, +70, +100, +130 mV

T1 sequence (P04756 21-457 V433A): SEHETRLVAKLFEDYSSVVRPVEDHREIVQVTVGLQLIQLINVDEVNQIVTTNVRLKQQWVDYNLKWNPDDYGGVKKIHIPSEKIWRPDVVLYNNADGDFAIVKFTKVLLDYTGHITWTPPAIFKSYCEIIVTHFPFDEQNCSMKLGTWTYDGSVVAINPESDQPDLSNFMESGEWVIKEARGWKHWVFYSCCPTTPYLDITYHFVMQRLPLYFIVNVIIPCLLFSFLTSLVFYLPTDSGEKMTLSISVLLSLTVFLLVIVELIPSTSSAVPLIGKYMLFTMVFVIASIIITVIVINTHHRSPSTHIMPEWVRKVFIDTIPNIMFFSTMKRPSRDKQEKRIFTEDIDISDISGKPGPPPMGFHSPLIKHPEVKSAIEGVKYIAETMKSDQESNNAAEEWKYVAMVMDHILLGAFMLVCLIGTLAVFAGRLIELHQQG
T1 sequence (P09690 24-501): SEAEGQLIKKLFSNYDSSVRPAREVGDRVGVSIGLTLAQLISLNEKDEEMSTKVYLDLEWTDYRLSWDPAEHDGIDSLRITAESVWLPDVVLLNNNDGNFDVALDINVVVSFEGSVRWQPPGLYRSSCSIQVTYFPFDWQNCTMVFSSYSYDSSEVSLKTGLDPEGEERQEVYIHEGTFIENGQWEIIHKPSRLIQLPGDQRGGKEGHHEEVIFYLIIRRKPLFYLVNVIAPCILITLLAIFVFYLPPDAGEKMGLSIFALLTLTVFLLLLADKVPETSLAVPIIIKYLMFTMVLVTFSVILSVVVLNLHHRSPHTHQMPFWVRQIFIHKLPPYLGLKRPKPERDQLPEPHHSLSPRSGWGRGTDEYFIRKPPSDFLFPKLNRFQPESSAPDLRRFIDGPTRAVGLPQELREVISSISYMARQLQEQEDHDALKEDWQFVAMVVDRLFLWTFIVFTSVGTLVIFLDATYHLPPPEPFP
T1 sequence (P02716 25-520): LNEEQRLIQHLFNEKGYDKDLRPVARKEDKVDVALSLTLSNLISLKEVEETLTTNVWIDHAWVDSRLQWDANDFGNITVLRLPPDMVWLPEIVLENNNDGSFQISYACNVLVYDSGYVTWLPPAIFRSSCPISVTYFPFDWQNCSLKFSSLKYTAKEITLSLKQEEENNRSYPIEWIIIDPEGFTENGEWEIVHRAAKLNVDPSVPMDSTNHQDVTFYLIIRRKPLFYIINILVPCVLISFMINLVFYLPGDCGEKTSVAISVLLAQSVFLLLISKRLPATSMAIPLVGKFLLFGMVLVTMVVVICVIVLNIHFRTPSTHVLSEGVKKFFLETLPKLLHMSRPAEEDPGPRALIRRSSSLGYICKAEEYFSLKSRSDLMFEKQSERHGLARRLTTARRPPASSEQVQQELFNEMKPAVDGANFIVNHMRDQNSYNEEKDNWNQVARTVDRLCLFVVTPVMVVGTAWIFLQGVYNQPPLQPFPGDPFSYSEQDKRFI
T1 sequence (P20782 21-493): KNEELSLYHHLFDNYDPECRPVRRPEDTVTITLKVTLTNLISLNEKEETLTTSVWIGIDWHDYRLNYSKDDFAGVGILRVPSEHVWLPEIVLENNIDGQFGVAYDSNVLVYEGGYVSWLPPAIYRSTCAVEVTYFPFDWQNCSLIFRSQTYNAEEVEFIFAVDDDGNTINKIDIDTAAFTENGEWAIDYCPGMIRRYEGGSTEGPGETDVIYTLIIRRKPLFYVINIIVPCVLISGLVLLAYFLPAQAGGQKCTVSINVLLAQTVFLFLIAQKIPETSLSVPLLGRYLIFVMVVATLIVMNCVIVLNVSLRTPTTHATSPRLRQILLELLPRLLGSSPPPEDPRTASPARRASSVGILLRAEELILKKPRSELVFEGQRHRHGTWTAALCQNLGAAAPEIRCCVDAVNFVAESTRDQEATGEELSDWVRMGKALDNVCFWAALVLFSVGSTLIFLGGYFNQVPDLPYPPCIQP

Row | SMILES | blocking rate constant k+B [1, 4] | unblocking rate constant k–B [1, 4] | Kd [1, 5] | other results
1 | COc1cc2c3cc1Oc1cc(ccc1O)C[C@@H]1c4c(cc(OC)c(O)c4Oc4ccc(cc4)C[C@@H]3N(C)CC2)CC[N+]1(C)C [(+)-tubocurarine] | 3e+06 M⁻¹ s⁻¹ | 0.8 s⁻¹ | 0.27 µM | 
2 | CC(C)(C)NCC(O)c1ccc(O)c(CO)c1 (stereo not shown) [albuterol] | 4.3e+07 M⁻¹ s⁻¹ | 1042 s⁻¹ | 24 µM | 
3 | CC(=O)OCC[N+](C)(C)C [acetylcholine] | 3.7e+07 M⁻¹ s⁻¹ | 56000 s⁻¹ | 1200 µM | 
4 | CC[N+](CC)(CC)CC(=O)Nc1c(C)cccc1C [QX-314] | 1.9e+07 M⁻¹ s⁻¹ | ~ 30 s^−1 | ~1 µM | 
5 | CC[N+](CC)(CC)CCOCCOCCOCCOCCOCCOCCOCC[N+](CC)(CC)CC [PQ4] |  |  |  | effect on apparent mean open time (τapp) ([2]; +70 mV): dose-dependent decrease; unblocking rate constant k–B [2, 6]: 4 ± 3 s⁻¹; blocking rate constant k+B [2, 6]: 2.2e+07 M⁻¹ s⁻¹; Kd [2, 7]: 0.19 ± 0.15 µM
6 | CNC(=O)Oc1ccc2c(c1)[C@]1(C)CCN(C)[C@@H]1N2C [physostigmine] | 2e+07 M⁻¹ s⁻¹ | 450 s⁻¹ | 23 µM | 
7 | CN1CCCN=C1/C=C/c1cccs1 [pyrantel] | 8e+07 M⁻¹ s⁻¹ | 667 s⁻¹ | 8 µM | 
8 | C[N+](C)(C)CCO [choline] |  |  | 12500 µM | 
9 | Cc1cccc(C)c1NC(=O)C[N+](C)(C)C [QX-222] | 2.1e+07 M⁻¹ s⁻¹ | ~ 600 s^−1 | ~30 µM | 
10 | C[C@]12N[C@H](Cc3ccccc31)c1ccccc12 [MK-801] | 2e+07 M⁻¹ s⁻¹ | 48 s⁻¹ | 2.4 µM | 
11 | CCN(CC)CCOC(=O)c1ccc(N)cc1 [procaine] | 2e+06 M⁻¹ s⁻¹ | 200 s⁻¹ | 100 µM | 
12 | Br.C[N+](C)(C)CCCCCNCC12CC3CC(CC(C3)C1)C2.[Br-] [IEM-1460] | 7.2e+07 M⁻¹ s⁻¹ | 858 s⁻¹ | 12 µM | 
13 | C[N+](C)(C)CCOCCOCCOCCOCCOCCOCCOCC[N+](C)(C)C [PQ0] |  |  |  | Kd ([1]; prototype PEG-trimethylammonium blockers, read-out: Kd for the AChR pore): 9 ± 2 µM
14 | CC[N+]1(CCOCCOCCOCCOCCOCCOCCOCC[N+]2(CC)CCCCC2)CCCCC1 [PQ3] |  |  |  | effect on apparent mean open time (τapp) ([2]; +70 mV): dose-dependent decrease; unblocking rate constant k–B [2, 6]: 4 ± 2 s⁻¹; blocking rate constant k+B [2, 6]: 2.2e+07 ± 6e+06 M⁻¹ s⁻¹; Kd [2, 7]: 0.17 ± 0.12 µM; agonist potency (channel open probability and opening duration with compound alone) [3]: poor agonists
15 | C[N+]1(CCOCCOCCOCCOCCOCCOCCOCC[N+]2(C)CCCC2)CCCC1 [PQ1] |  |  |  | effect on apparent mean open time (τapp) ([2]; +70 mV): dose-dependent decrease; unblocking rate constant k–B [2, 6]: 64 ± 14 s⁻¹; blocking rate constant k+B [2, 6]: 2e+07 ± 4e+06 M⁻¹ s⁻¹; predominant blockade mode ([2]; faster- vs slower-dissociation mode): faster-dissociation mode; Kd [2, 7]: 3 ± 1 µM
16 | CC[N+](CC)(CC)CC [tetraethylammonium] |  |  |  | Kd ([1]; read-out: Kd (= k–B/k+B)): 2700 µM
17 | C[N+]1(CCOCCOCCOCCOCCOCCOCCOCC[N+]2(C)CCCCC2)CCCCC1 [PQ2] |  |  |  | Kd [2]: 0.08 ± 0.09 µM; effect on apparent mean open time (τapp) ([2]; +70 mV): dose-dependent decrease; unblocking rate constant k–B [2, 6]: 2 ± 2 s⁻¹; blocking rate constant k+B [2, 6]: 2.9e+07 ± 7e+06 M⁻¹ s⁻¹
18 | CNC1(c2ccccc2Cl)CCCCC1=O (stereo not shown) [ketamine] | 3e+06 M⁻¹ s⁻¹ | 100 s⁻¹ | 33 µM | 
19 | Nc1nnc(-c2cccc(Cl)c2Cl)c(N)n1 [lamotrigine] | 6.2e+06 M⁻¹ s⁻¹ | 575 s⁻¹ | 93 µM | 
20 | CCC[N+](C)(CCC)CCOCCOCCOCCOCCOCCOCCOCC[N+](C)(CCC)CCC [PQ5] |  |  |  | voltage dependence of k+B [2, 8]: increases with membrane hyperpolarization; voltage dependence of τapp [2, 8]: decreases with hyperpolarizing; effect on apparent mean open time (τapp) ([2]; +70 mV): dose-dependent decrease; unblocking rate constant k–B [2, 6]: 2 ± 1 s⁻¹; blocking rate constant k+B [2, 6]: 1.5e+07 ± 1e+06 M⁻¹ s⁻¹; Kd [2, 7]: 0.12 ± 0.09 µM; agonist potency (channel open probability and opening duration with compound alone) [3]: poor agonists
